Source: paper PMC11747586, “Synthesis and Investigation of Peptide–Drug Conjugates Comprising Camptothecin and a Human Protein‐Derived Cell‐Penetrating Peptide” (Chemical Biology & Drug Design, 2025)
Where “and” joins values, the source holds several entries; their conditions need not be identical. Equal entries are not always repeated. Residues, ends and D or L forms follow the SMILES beside them. *: point of attachment. S(CH2)2OCO2(CPT-20-yl) = CC[C@@]1(OC(=O)OCCS*)C(=O)OCc2c1cc1n(c2=O)Cc2cc3ccccc3nc2-1

Key:
HT144 (melanoma) cells = experiment: cells
Method: (§1) Cell death was measured using resazurin, with 0.1% (v/v) Triton X‐100 as a control for 100% cell death. Data points are expressed as mean ± SD for at least two biological replicates. Dose response curves were fitted using [inhibitor] versus response with variable slope, Graphpad Prism v10. […] RBC lysis was determined by measuring released hemoglobin, with 0.1% (v/v) Triton X‐100 as a control for 100% cell lysis. Melittin was included as a membranolytic control. Data points are expressed as mean ± SD for two technical replicates. Dose response curves were fitted using [inhibitor] versus response with variable slope, Graphpad Prism v10. […] CC50 values are expressed as mean (SEM).
Cell death was measured using resazurin, with 0.1% (v/v) Triton X-100 as a control for 100% cell death. Data points are expressed as mean ± SD for at least two biological replicates. CC50 values are expressed as mean (SEM). Note: CPT-dipeptide-PDIP was not included in this study. c[A]PDIP is a desulfurized variant of cPDIP 2 (see Table S1) to prevent the presence of free thiol during assays. […]
(§2) HaCaT cells were grown in DMEM medium and HT144 cells were grown in RPMI medium supplemented with 2 mM L-glutamine and 10 mM sodium pyruvate. Media were supplemented with 10% (v/v) fetal bovine serum, 100 units/mL of penicillin and […] of streptomycin. Flasks of cultured cells were maintained in a humidified incubator (37 °C, 5% CO2) and passaged every 2–3 days to maintain cultures between 20–90% confluence. Cell line identity was verified by comparing […]
(§3) STR profiles of the cell lines against database entries from the DSMZ-German collection of microorganisms and cell cultures, GmBH https://celldive.dsmz.de/str/browse.
Toxicity to the HT144 and HaCaT cell lines was tested following peptide treatment by measuring the metabolism of resazurin into fluorescent resorufin. The assays were performed with 5000 cells/well (96-well plate) in serum free media. Cells were incubated with serially diluted peptides, PDCs or […]

[1] = Cytotoxicity (resazurin) against cultured HaCaT noncancerous cells; conditions: human
Method: as §1, with “(SEM). […]” for “(SEM).”
as §2, §3
Toxicity to the HT144 and HaCaT cell lines was tested following peptide treatment by measuring the metabolism of resazurin into fluorescent resorufin. The assays were performed with 5000 cells/well (96-well plate) in serum free media. Cells were incubated with serially diluted peptides, PDCs or drugs for 72 h or 24 h (37 °C, 5% CO2). PBS and 0.1% (v/v) Triton X-100 were included as controls for 0% and 100% toxicity. Resazurin was added at 0.02% (w/v) final concentration 2 h prior to the assay end point. Fluorescence (λex = 560 nm, λem = 585 nm) was measured using a Tecan infinite M1000Pro multiplate reader. Percentage cytotoxicity was calculated relative to 0% and 100% controls.
Dose-response curves were fitted and CC50 values were determined using [inhibitor] vs response with four parameters with the top constrained to 100% (GraphPad Prism version 10.0.2). Data was collected as three biological replicates, with experiments conducted on different days.
(§4) Red blood cell (RBC) lysis
Human RBCs and serum were obtained from healthy volunteers via the Red Cross Lifeblood, Brisbane, Australia. RBCs were washed three times with PBS and stored in culture medium (RPMI

human RBCs = experiment: Red blood cell (RBC) lysis, released hemoglobin; conditions: 72 h
Method: as §1, with “(SEM). […]” for “(SEM).”
as §4
Human RBCs and serum were obtained from healthy volunteers via the Red Cross Lifeblood,
Brisbane, Australia. RBCs were washed three times with PBS and stored in culture medium (RPMI

[2] = Parallel artificial membrane permeability assay (PAMPA); assay type: in vitro ADME; conditions: 4 h; for % recovered (soluble fractions) / Papp at 4 h, 4 μM: 4 μM; for % recovered (soluble fractions): combined apical and basolateral fractions; for Papp at 4 h, 4 μM: PAMPA, apical to basolateral, read-out: apparent permeability (Papp); for degradation during PAMPA experiment: cell-free, PBS, 37 °C
Method: FIGURE 4 (A) Membrane permeability and cellular uptake of PDCs, scaffold peptides, and CPT. Compounds were added to PAMPA wells (4 μM) and incubated for 4 h. Supernatant from apical and basolateral sides of the membrane were collected and analyzed using LC–MS. The amount in the combined soluble fractions was compared to the starting amount to determine % recovery, and the apparent permeability (Papp) was calculated as before (Sevin et al. [2013]). Data is expressed as mean ± SD from a single experiment with three technical replicates. (B) Internalization/cell membrane association of PDCs 12–14 and PDIP with HT144 cells. Cells were treated with PDIP or PDCs (4 μM) for 1 h, washed to remove extracellular compound, then extracted with 75% (v/v) MeCN in mQH2O (containing 1.75% (v/v) TFA), to recover soluble peptide or PDC from precipitated cell proteins. The relative amount of internalized peptide or PDC was determined by integrating area under the curve (AUC) for the [M + 6H]^6+ m/z peak (for the intact mass) using time of flight–mass spectrometry (see Figure S2). […] Data is expressed as mean ± SD from a single experiment with three technical replicates for each treatment and control and was analyzed with ANOVA (Tukey multiple comparisons; **p < 0.01, *p < 0.05). (C) Detection of intracellular CPT following 6 h treatment of HT144 cells with CPT and PDCs 12 and 14. […] Data is expressed as mean ± SD from a single experiment with three technical replicates for each treatment and was analyzed with ANOVA (Fisher multiple paired comparisons; **p < 0.01, *p < 0.05). TEXT PRINTED IN THE PICTURE: (A) PDIP: % recovered (soluble fractions): 94 | (A) 12: % recovered (soluble fractions): 58 | (A) 14: % recovered (soluble fractions): 33 | (A) 15: % recovered (soluble fractions): 40 | (A) c[A] PDIP: % recovered (soluble fractions): 34 | (A) CPT: % recovered (soluble fractions): 92 […]
For the first assay, the PDCs (12–15), scaffold peptides and CPT (4 μM) were added to the apical side of PAMPA monolayers and incubated for 4 h. […] PDIP, CPT, and PDCs 12 and 14 had high permeability (Papp ≥ 2 × 10^−6 cm/s), highlighting that these PDCs maintain membrane permeability with the CPT cargo attached. […] Reliable permeability data were not obtained for PDC 13 because of poor recovery of the PDC from soluble fractions, and degradation during the 4 h PAMPA experiment. […] Instability of the carbonate linkage within CPT conjugates containing a dipeptide linker has been previously reported (Walker et al. [2002]), highlighting the potential incompatibility of this drug–linker combination for CPT PDCs. Considering the observed degradation of 13 in the cell‐free assay, it is also possible that extracellular degradation occurred during the cytotoxicity assays.
Parallel artificial membrane permeability assay (PAMPA)
PAMPA was performed according to the manufacturer instructions for the BD Gentest pre-coated PAMPA plate system (BD Biosciences), as previously described.16 Briefly, peptides and PDCs (4 μM in PBS) were added to the apical side of PAMPA wells and incubated for 4 h at 37 °C, 5% CO2 with 95% humidity. Soluble fractions were recovered from the apical and basolateral sides, and compound concentration was quantified using a Shimadzu LCMS-2020 instrument with a Phenomenex 5 µm C18 / 300 Å / 150 x 2 mm LC column. Data was collected from three technical replicates for each compound. The % recovery was determined from (combined from apical and basolateral fractions) relative to the starting concentration:
Recovery rate : R (%) = (C஺ ×V஺ +C஻ ×V஻ )× 100 where CA and CB are the apical and basolateral concentrations (µM), VA and VB are the apical and basolateral volumes (mL), and C0 is the initial concentration (µM).
The apparent permeability coefficient (Papp) was calculated using the following equations17 and where A is the membrane surface area (cm2): […]

Compound | cytotoxic activity against HT144 at 24 h (HT144 (melanoma) cells; 24 h incubation, 16 nM to 2 μM (CPT, PDCs), up to 32 μM (peptides)) | CC50 (HT144 (melanoma) cells; Homo sapiens, HT-144, 72 h, read-out: CC50 (half maximal cytotoxicity concentration) HT144) | CC50 at 72 h [1] | RBC lysis (human RBCs; concentration range 16 nM—2 μM) | % recovered (soluble fractions) [2] | Papp at 4 h, 4 μM [2] | HC10 (minimal hemolytic concentration) RBC (human RBCs; human RBCs 0.25% v/v) | concentration that completely lysed the RBCs (human RBCs; human RBCs) | degradation during PAMPA experiment [2]
CC[C@@]1(O)C(=O)OCc2c1cc1n(c2=O)Cc2cc3ccccc3nc2-1 [CPT, Camptothecin] | absence of activity | 380 nM | 570 nM | did not lyse RBCs | 92% and > 90% | ≥ 2 ×10⁻⁶ cm/s | – | – | –
CC[C@H](C)[C@H](NC(=O)CN)C(=O)NCC(=O)N[C@@H](C)C(=O)N[C@H](C(=O)N[C@@H](CC(C)C)C(=O)N[C@@H](CCCCN)C(=O)N[C@H](C(=O)N[C@@H](CC(C)C)C(=O)N[C@H](C(=O)N[C@H](C(=O)NCC(=O)N[C@@H](CC(C)C)C(=O)N1CCC[C@H]1C(=O)N[C@@H](C)C(=O)N[C@@H](CC(C)C)C(=O)N[C@H](C(=O)N[C@@H](CO)C(=O)N[C@@H](Cc1c[nH]c2ccccc12)C(=O)N[C@H](C(=O)N[C@@H](CCCCN)C(=O)N[C@@H](CCCNC(=N)N)C(=O)N[C@@H](CCCCN)C(=O)N[C@@H](CCCNC(=N)N)C(=O)N[C@@H](CCC(N)=O)C(=O)N[C@@H](CCC(N)=O)C(N)=O)[C@@H](C)CC)[C@@H](C)CC)[C@@H](C)O)[C@@H](C)O)C(C)C)C(C)C [Melittin] | – | – | – | – | – | – | 1.8 µM | 8 µM | –
CC[C@H](C)[C@@H]1NC(=O)[C@H](CCCCN)NC(=O)[C@H](CCCCN)NC(=O)[C@H](Cc2ccc(O)cc2)NC(=O)[C@H](CC(C)C)NC(=O)[C@@H]2CCCN2C(=O)CNC(=O)CNC(=O)[C@@H](NC(=O)CN)CSSC[C@@H](C(=O)N[C@@H](CCC(=O)O)C(=O)N[C@@H](CO)C(N)=O)NC(=O)[C@H](CC(C)C)NC(=O)[C@H](CCCCN)NC(=O)[C@H](CCCCN)NC(=O)[C@H]([C@@H](C)CC)NC(=O)[C@H]([C@@H](C)CC)NC(=O)[C@H](CCCCN)NC(=O)[C@H](CCCCN)NC(=O)[C@H](Cc2ccc(O)cc2)NC(=O)[C@H](CC(C)C)NC(=O)[C@@H]2CCCN2C(=O)[C@H](C)NC(=O)CNC(=O)CNC(=O)[C@H](Cn2cc(COCCC(=O)N[C@H](C(=O)N[C@@H](CCCNC(N)=O)C(=O)Nc3ccc(COC(=O)O[C@]4(CC)C(=O)OCc5c4cc4n(c5=O)Cc5cc6ccccc6nc5-4)cc3)C(C)C)nn2)NC(=O)CNC(=O)CNC(=O)[C@H](CO)NC(=O)[C@H](CCC(=O)O)NC(=O)[C@H](CC(C)C)NC(=O)[C@H](CC(C)C)NC(=O)[C@H](CCCCN)NC(=O)[C@H](CCCCN)NC(=O)[C@H]([C@@H](C)CC)NC1=O [PDC 13] | – | – | – | – | poor recovery | – | – | – | degradation
CC[C@H](C)[C@@H]1NC(=O)[C@H](CCCCN)NC(=O)[C@H](CCCCN)NC(=O)[C@H](Cc2ccc(O)cc2)NC(=O)[C@H](CC(C)C)NC(=O)[C@@H]2CCCN2C(=O)[C@H](C)NC(=O)CNC(=O)CNC(=O)[C@H](CSSCCOC(=O)O[C@]2(CC)C(=O)OCc3c2cc2n(c3=O)Cc3cc4ccccc4nc3-2)NC(=O)CNC(=O)CNC(=O)[C@H](CO)NC(=O)[C@H](CCC(=O)O)NC(=O)[C@H](CC(C)C)NC(=O)[C@H](CC(C)C)NC(=O)[C@H](CCCCN)NC(=O)[C@H](CCCCN)NC(=O)[C@H]([C@@H](C)CC)NC(=O)[C@H]([C@@H](C)CC)NC(=O)[C@H](CCCCN)NC(=O)[C@H](CCCCN)NC(=O)[C@H](Cc2ccc(O)cc2)NC(=O)[C@H](CC(C)C)NC(=O)[C@@H]2CCCN2C(=O)[C@H](C)NC(=O)CNC(=O)CNC(=O)[C@H](CO)NC(=O)CNC(=O)CNC(=O)[C@H](CO)NC(=O)[C@H](CCC(=O)O)NC(=O)[C@H](CC(C)C)NC(=O)[C@H](CC(C)C)NC(=O)[C@H](CCCCN)NC(=O)[C@H](CCCCN)NC(=O)[C@H]([C@@H](C)CC)NC1=O [PDC 15] (cyclo(APLYKKIIKKLLESGGC(S(CH2)2OCO2(CPT-20-yl))GGAPLYKKIIKKLLESGGSGG)) | – | – | – | – | 40% | ~0.9 ×10⁻⁶ cm/s | – | – | Negligible degradation
